Earlier results, collected in US3968207A, “Method of controlling fleas and ticks on cats and dogs” (priority 1975, dated 1976).

Test system: lice
Conditions: single spray treatment; cited from earlier work

CCOP(=S)(OCC)Oc1nc(Cl)c(Cl)cc1Cl [Dursban, O,O-diethyl O-(3,5,6-trichloro-2-pyridyl)phosphorothioate]
control of lice on cattle: effective control
